# Measurements from patent US10450288B2, “Hydroxy formamide derivatives and their use” (GLAXOSMITHKLINE INTELLECTUAL PROPERTY (NO.2) LIMITED, priority 2014, dated 2019).
# Tested on: human cardiac fibroblasts
# Assay: Cell-based inhibition assay of generation of procollagen I C-terminal propeptide (PICP), PICP ELISA
# Settings: Cardiac fibroblast; human cardiac fibroblasts, crowding media, 24 to 48 hr, PICP ELISA of media; read-out: pIC50, PICP cellular inhibition assay (converted)
# Description: Cell-Based Inhibition Assay of Generation of Procollagen I C-Terminal Propeptide (PICP) and Mature Collagen:
# An adaptation of the collagen deposition assay described by Chen, C. Z. C., et al., British Journal of Pharmacology, 2009, 158, 1196-1209 was used to examine effect of compounds on procollagen I processing and collagen deposition. In the adapted assay, human cardiac fibroblasts were utilized. Processing of procollagen I was determined by a PICP ELISA assay and deposition of mature collagen was determined by immunostaining.
# Human cardiac fibroblasts were cultured and maintained until passage 6 in FGM-3 media (Lonza, #CC-3132) in a 37° C. humidified incubator with 5% CO2. They were then seeded in 96-well black wall, clear bottom plates at 10,000 to 15,000 cells per well in eagle's minimum essential media (EMEM, ATCC #30-2003) containing 10% fetal bovine serum (FBS, Life Technologies #10082147), 1% Glutamax (Life Technologies #35050061) and 1% Penicillin and Streptomycin (Life Technologies #15070063). These cultures were placed in 37° C. incubator. The next day, media were removed by aspiration and cells were rinsed with phosphate buffered saline. Crowding media (also called ficoll media) was prepared by adding 112.5 mg/ml of ficoll70 and 75 mg/ml ficoll400 (GE healthcare #17-0310-10 and 17-0300-10, respectively), 100 μM ascorbic acid, 1% Glutamax and 1% Penicillin and Streptomycin to EMEM media. Test compounds (dissolved in DMSO) were diluted into crowding media and then added to the cells. Final concentration of DMSO in crowding media was less than 0.3%. Cells were treated for 24 to 48 hr in a 37° C. incubator. At the end of the treatment period, cell media were collected. The level of PICP in the media were determined by a PICP ELISA assay (Quidel #8003) following the manufacturer's protocol. Potencies of test compounds were calculated by fitting PICP levels, relative to untreated controls, to log (inhibitor) vs. response equation using Graphpad Prism software 5.0 and expressed as pIC50.
row,Structure (SMILES),IC50 [µM]
1,"CCCCC[C@H](CN(O)C=O)C(=O)NCNC(=O)c1ccc(-c2ccc(C(=O)O)cc2)o1 [Example 92, (R)-4-(5-(((2-((N-hydroxyformamido)methyl)heptanamido)methyl)carbamoyl)furan-2-yl)benzoic acid]",< 3.98
2,"CCCCC[C@H](CN(O)C=O)C(=O)NCNC(=O)c1ccc(-c2cccc(P(C)(=O)O)c2)o1 [Example 94, (3-(5-((((R)-2-((N-hydroxyformamido)methyl)heptanamido)methyl)carbamoyl)furan-2-yl)phenyl)(methyl)phosphinic acid]",< 3.98
3,"CCCCC[C@@H](C(=O)NCNC(=O)C1CCC(c2cc(OCC)cc(P(=O)(O)O)c2)O1)[C@@H](CC)N(O)C=O (stereo partly drawn) [Example 97, (3-ethoxy-5-(5-((((R)-2-((R)-1-(N-hydroxyformamido)propyl)heptanamido)methyl)carbamoyl)tetrahydrofuran-2-yl)phenyl)phosphonic acid]",< 3.98
4,"CCCCC[C@@H](C(=O)NCNC(=O)c1ccc(-c2cc(OCC)cc(C(=O)NCP(=O)(O)O)c2)o1)[C@@H](CC)N(O)C=O [Example 100, ((3-ethoxy-5-(5-((((R)-2-((R)-1-(N-hydroxy-formamido)propyl)heptanamido)methyl)carbamoyl)furan-2-yl)benzamido)methyl) phosphonic acid]",< 3.98
5,"CCCCC[C@H](CN(O)C=O)C(=O)NCNC(=O)c1ccc(-c2cccc(OCC(F)F)c2)o1 [Example 102, (R)-5-(3-(2,2-difluoroethoxy)phenyl)-N-((2-((N-hydroxyformamido)methyl)heptanamido)methyl)furan-2-carboxamide]",< 3.98
6,"CCCCC[C@H](CN(O)C=O)C(=O)NCNC(=O)c1ccc(-c2cccc(SCC)c2)o1 [Example 103, (R)-5-(3-(ethylthio)phenyl)-N-((2-((N-hydroxyformamido)methyl)heptanamido)methyl)furan-2-carboxamide]",< 3.98
7,"CCCCC[C@H](CN(O)C=O)C(=O)NCNC(=O)c1ccc(-c2cccc(SC)c2)o1 [Example 104, (R)-N-((2-((N-hydroxyformamido)methyl)heptanamido)methyl)-5-(3-(methylthio)phenyl)furan-2-carboxamide]",< 3.98
8,"CCCCC[C@H](CN(O)C=O)C(=O)NCNC(=O)c1ccc(-c2cccc([N+](=O)[O-])c2)o1 [Example 105, (R)—N-((2-((N-hydroxyformamido)methyl)heptanamido)methyl)-5-(3-nitrophenyl)furan-2-carboxamide]",< 3.98
9,"CCCCC[C@H](CN(O)C=O)C(=O)NCNC(=O)c1ccc(-c2ccc3cnn(C)c3c2)o1 [Example 106, (R)—N-((2-((N-hydroxyformamido)methyl)heptanamido)methyl)-5-(1-methyl-1H-indazol-6-yl)furan-2-carboxamide]",< 3.98
10,"CCCCC[C@H](CN(O)C=O)C(=O)NCNC(=O)c1ccc(-c2cccc(P(=O)(O)O)c2)o1 [Example 108, (R)-(3-(5-(((2-((N-hydroxyformamido)methyl)heptanamido)methyl)carbamoyl)furan-2-yl)phenyl)phosphonic acid]",< 3.98
11,CCCCC[C@@H](C(=O)NCNC(=O)c1ccc(-c2ccc(C(=O)O)c(CC(=O)O)c2)o1)[C@@H](CC)N(O)C=O [Example 114],< 3.98
12,"CCOc1cc(C(=O)O)c(O)c(-c2ccc(C(=O)NCNC(=O)[C@H](CCc3ccccc3)[C@@H](CC)N(O)C=O)o2)c1 [Example 115, 5-ethoxy-2-hydroxy-3-(5-((((2R,3R)-3-(N-hydroxyformamido)-2-phenethylpentanamido)methyl)carbamoyl)furan-2-yl)benzoic acid]",< 3.98
13,"CCOc1cc(-c2ccc(C(=O)NCNC(=O)[C@H](CCc3ccc4ccccc4c3)[C@@H](CC)N(O)C=O)o2)ccc1C(=O)N[C@@H](CC(=O)O)C(=O)O [Example 117, (S)-2-(2-ethoxy-4-(5-((((2R,3R)-3-(N-hydroxyformamido)-2-(2-(naphthalen-2-yl)ethyl)pentana-mido)methyl)carbamoyl)furan-2-yl)benzamido) succinic acid]",< 3.98
14,"CC[C@H]([C@@H](CCc1ccc(F)cc1F)C(=O)NCNC(=O)c1ccc(-c2cc(OCC(=O)O)cc(C(=O)O)c2O)o1)N(O)C=O [Example 118, 5-(carboxymethoxy)-3-(5-((((2R,3R)-2-(2,4-difluorophenethyl)-3-(N-hydroxyformamido)pentanamido)methyl)carbamoyl)furan-2-yl)-2-hydroxybenzoic acid]",< 3.98
15,"CCCCC[C@@H](C(=O)NCNC(=O)c1ccc(-c2ccc(C(=O)N[C@@H](CC(=O)O)C(=O)O)cc2)o1)[C@@H](CC)N(O)C=O [Example 119, (S)-2-(4-(5-((((R)-2-((R)-1-(N-hydroxyformamido)propyl)heptanamido)methyl)carbamoyl)furan-2-yl)benzamido) succinic acid]",< 3.98
16,"CCCCC[C@@H](C(=O)NCNC(=O)c1ccc(-c2ccc(C(=O)N[C@@H](CC(=O)O)C(=O)O)c(C)c2)o1)[C@@H](CC)N(O)C=O [Example 120, (S)-2-(4-(5-((((R)-2-((R)-1-(N-hydroxyformamido)propyl)heptanamido)methyl)carbamoyl)furan-2-yl)-2-methylbenzamido) succinic acid]",< 3.98
17,"CCCCC[C@@H](C(=O)NCNC(=O)c1ccc(-c2cc(OCC(=O)O)cc(C(=O)N[C@@H](CC(=O)O)C(=O)O)c2)o1)[C@@H](CC)N(O)C=O [Example 125, (S)-2-(3-(carboxymethoxy)-5-(5-((((R)-2-((R)-1-(N-hydroxyformamido)propyl)heptanamido)methyl)carbamoyl)furan-2-yl)benzamido) succinic acid]",< 3.98
18,"CCCCC[C@@H](C(=O)NCNC(=O)c1ccc(-c2ccc(C(=O)O)c(C(=O)O)c2)o1)[C@@H](CC)N(O)C=O [Example 129, 4-(5-((((R)-2-((R)-1-(N-hydroxyformamido)propyl)heptanamido)methyl)carbamoyl)furan-2-yl)phthalic acid]",< 3.98
19,"CCCCC[C@@H](C(=O)NCNC(=O)c1ccc(-c2cc(CN(C)CC(=O)O)cc(OCC)c2)o1)[C@@H](CC)N(O)C=O [Example 130, 2-((3-ethoxy-5-(5-((((R)-2-((R)-1-(N-hydroxyformamido)propyl)heptanamido)methyl)carbamoyl)furan-2-yl)benzyl)(methyl)amino)acetic acid]",< 3.98
20,"CCCCC[C@@H](C(=O)NCNC(=O)c1ccc(-c2cc(OCC(N)=O)cc(C(=O)O)c2)o1)[C@@H](CC)N(O)C=O [Example 131, 3-(2-amino-2-oxoethoxy)-5-(5-((((R)-2-((R)-1-(N-hydroxyformamido)propyl)heptanamido)methyl)carbamoyl)furan-2-yl)benzoic acid]",< 3.98
21,CCCCC[C@@H](C(=O)NCNC(=O)c1ccc(-c2ccc(C(=O)N[C@H](CC(=O)O)C(=O)O)cc2)o1)[C@@H](CC)N(O)C=O [Example 133],< 3.98
22,"CCCCC[C@@H](C(=O)NCNC(=O)c1ccc(-c2ccc(C(=O)N[C@@H](CCC(=O)O)C(=O)O)cc2)o1)[C@@H](CC)N(O)C=O [Example 134, (S)-2-(4-(5-((((R)-2-((R)-1-(N-hydroxyformamido)propyl)heptanamido)methyl)carbamoyl)furan-2-yl)benzamido) pentanedioic acid]",< 3.98
23,"CCCCC[C@@H](C(=O)NCNC(=O)c1ccc(-c2ccc(C(=O)N[C@@H](CCC(=O)O)C(=O)O)c(OCC)c2)o1)[C@@H](CC)N(O)C=O [Example 135, (S)-2-(2-ethoxy-4-(5-((((R)-2-((R)-1-(N-hydroxyformamido)propyl)heptanamido)methyl)carbamoyl)furan-2-yl)benzamido) pentanedioic acid]",< 3.98
24,"CCCCC[C@@H](C(=O)NCNC(=O)c1ccc(-c2ccc(C(=O)N(CC(=O)O)CC(=O)O)cc2)o1)[C@@H](CC)N(O)C=O [Example 136, 2,2′-((4-(5-((((R)-2-((R)-1-(N-hydroxyformamido)propyl)heptanamido)methyl)carbamoyl)furan-2-yl)benzoyl)azanediyl)diacetic acid]",< 3.98

# Same assay, conditions: Homo sapiens, Cardiac fibroblast, read-out: pIC50, PICP cellular inhibition assay (converted)
row,Structure (SMILES),IC50 [µM]
1,"CCCCC[C@H](CN(O)C=O)C(=O)NCNC(=O)c1ccc(-c2cccc(P(=O)(O)OC)c2)o1 [Example 95, methyl hydrogen (3-(5-((((R)-2-((N-hydroxyformamido)methyl)heptanamido)methyl)carbamoyl)furan-2-yl)phenyl)phosphonate]",< 3.98
2,"CCCCC[C@@H](C(=O)NCNC(=O)c1ccc(-c2cc(OCC)cc(P(=O)(O)OC)c2)o1)[C@@H](CC)N(O)C=O [Example 101, methyl hydrogen (3-ethoxy-5-(5-((((R)-2-((R)-1-(N-hydroxyformamido)propyl)heptanamido)methyl)carbamoyl)furan-2-yl)phenyl)phosphonate]",< 3.98
